Results published in patent publication US20080269510A1, “New alpha-glucosidase inhibitors and antibacterial compounds from Myrtus communis L” (priority 2005, published 2008).

Legend:
[1] = test system: Salmonella typhi; experiment: Antibacterial screening, agar well diffusion; type: cell-based; conditions: for Inhibition zone, ST (Salmonella typhi): 100 μL of 3 mg/3 ml DMSO sample per 6-mm well, 37° C., 24 h
[2] = test system: Shigella flexneri; experiment: Antibacterial screening, agar well diffusion; conditions: 100 μL of 3 mg/3 ml DMSO sample per 6-mm well, 37° C., 24 h
[3] = target: α-Glucosidase (E.C.3.2.1.20); experiment: α-Glucosidase enzyme inhibition assay (PNP-G substrate, spectrophotometric); type: biochemical; conditions: for IC50: pH 6.9, 37° C., 0.7 mM PNP-G, 500 m units/mL enzyme, read-out: α-glucosidase inhibitory activity IC50; for α-glucosidase inhibition (in words): compared with standards acarbose and deoxynojirimycin
Protocol: α-Glucosidase (E.C.3.2.1.20) enzyme inhibition assay has been performed according to the slightly modified method of Matsui et al., (Matsui T., Yoshimoto C., Osajima K., Oki T., and Osajima Y., Biosci. Biotech. Biochem., 1996, 60, 2019-2022). α-Glucosidase (E.C.3.2.1.20) from Saccharomyces species, purchased commercially (Wako 076-02841; Wako Pure Chemical Industries Ltd., 1-2 Doshomachi 3-Chome, Chuo-ku, Osaka 540-8605, Japan). The enzyme inhibition was measured spectrophotometrically at pH 6.9 and at 37° C. using 0.7 mM p-nitrophenyl α-D glucopyranoside (PNP-G) as a substrate and 500 m units/mL enzyme, in 50 mM sodium phosphate buffer containing 100 mM NaCl. […] The increment in absorption at 400 nm, due to the hydrolysis of PNP-G by α-glucosidase, was monitored continuously on microplate spectrophotometer (Spectra Max Molecular Devices, USA).

[4] = test system: Bacillus subtilis; experiment: Antibacterial screening, agar well diffusion; type: cell-based; conditions: 100 μL of 3 mg/3 ml DMSO sample per 6-mm well, 37° C., 24 h
Source text: (§1) As a negative control, DMSO was used.

[5] = test system: Staphylococcus aureus; experiment: Antibacterial screening, agar well diffusion; type: cell-based; conditions: for Inhibition zone, SA (Staphylococcus aureus): 100 μL of 3 mg/3 ml DMSO sample per 6-mm well, 37° C., 24 h
Source text: as §1

[6] = test system: Pseudomonas aeruginosa; experiment: Antibacterial screening, agar well diffusion; type: cell-based; conditions: for Inhibition zone, PA (Pseudomonas aeruginosa): 100 μL of 3 mg/3 ml DMSO sample per 6-mm well, 37° C., 24 h
Source text: as §1

[7] = test system: Escherichia coli; experiment: Antibacterial screening, agar well diffusion; type: cell-based; conditions: 100 μL of 3 mg/3 ml DMSO sample per 6-mm well, 37° C., 24 h
Source text: as §1

[8] = test system: multidrug-resistant (MDR) clinically relevant bacteria; conditions: cited from earlier work
[9] = autoxidation and FeCl3- and EDTA-mediated oxidation of linoleic acid; cited from earlier work

Row | Compound | Inhibition zone, ST (Salmonella typhi) [1] | Inhibition zone, SF (Shigella flexneri) [2] | IC50 [3] | Inhibition zone, BS (Bacillus subtilis) [4] | antibacterial activity against Staphylococcus aureus (in words) [5] | Inhibition zone, PA (Pseudomonas aeruginosa) [6] | Inhibition zone, EC (Escherichia coli) [7] | α-glucosidase inhibition (in words) [3] | activity against Salmonella typhi (in words) [1] | Inhibition zone, SA (Staphylococcus aureus) [5] | activity against Pseudomonas aeruginosa (in words) [6] | antibacterial activity against MDR bacteria (in words) [8] | antioxidant properties (in words) [9]
1 | CC(C)C(=O)c1c(O)c2c(c3c1OC1=C(C(=O)C(C)(C)C(=O)C1(C)C)[C@@H]3C(C)C)OC1=C(C(=O)C(C)(C)C(=O)C1(C)C)[C@@H]2C(C)C [Compound 2, Myrtucommulone-E] | 17 mm | 10 mm | 46.6 µM | 15 mm | significant antibacterial activity | 13 mm | 10 mm |  |  |  |  |  | 
2 | CC(C)C(=O)c1c(O)c(C(C2=C(O)C(C)(C)C(=O)C(C)(C)C2=O)C(C)C)c(O)c2c1OC1=C(C(=O)C(C)(C)C(=O)C1(C)C)C2C(C)C (centres unmarked) [Compound 3, Myrtucommulone-C] |  |  | 35.4 ± 1.15 µM |  |  |  |  | highest activity |  |  |  |  | 
3 | CC(C)C(=O)c1c(O)cc(O)c2c1OC1=C(C(=O)C(C)(C)C(=O)C1(C)C)C2C(C)C (centres unmarked) [Compound 4, Myrtucommulone-B] |  |  | 40 ± 1 µM |  |  |  |  | strong inhibition |  |  |  |  | 
4 | CC[C@H](CC[C@@H](C)[C@H]1CC[C@H]2[C@@H]3CC=C4C[C@@H](O)CC[C@]4(C)[C@H]3CC[C@]12C)C(C)C [Compound 7, β-sitosterol] | 18 mm |  |  | 12 mm |  | 16 mm |  |  | significant activity | 15 mm | significant activity |  | 
5 | CC(=O)c1c(O)c(C)c(O)c2c1OC1=CC(=O)C(C(C)=O)C(=O)C12C (centres unmarked) [Compound 9, usnic acid] | 17 mm | 15 mm |  | 16 mm |  | 17 mm | 11 mm |  |  | 15 mm |  |  | 
6 | C[C@H]1[C@H](C)CC[C@]2(C(=O)O)CC[C@]3(C)C(=CC[C@@H]4[C@@]5(C)C[C@@H](O)[C@H](O)C(C)(C)[C@@H]5CC[C@]43C)[C@H]12 [Compound 11, corosolic acid] | 17 mm | 15 mm |  | 15 mm |  | 17 mm |  |  | significant activity |  | significant activity |  | 
7 | CC1(C)CC[C@]2(C(=O)O)CC[C@]3(C)C(=CC[C@@H]4[C@@]5(C)C[C@@H](O)[C@H](O)[C@@](C)(CO)[C@@H]5CC[C@]43C)[C@@H]2C1 [Compound 12, arjunolic acid] | 16 mm | 13 mm |  | 15 mm |  | 12 mm | 9 mm |  | significant activity | 15 mm | significant activity |  | 
8 | CC1(C)CC[C@]2(CO)CC[C@]3(C)C(=CC[C@@H]4[C@@]5(C)CC[C@H](O)C(C)(C)[C@@H]5CC[C@]43C)[C@@H]2C1 [Compound 13, erythrodiol] | 19 mm |  |  | 17 mm |  | 12 mm | 16 mm |  | significant activity | 11 mm | significant activity |  | 
9 | CC1(C)CC[C@]2(C(=O)O)CC[C@]3(C)C(=CC[C@@H]4[C@@]5(C)CC[C@H](O)C(C)(C)[C@@H]5CC[C@]43C)[C@@H]2C1 [Compound 14, oleanolic acid] | 16 mm | 10 mm |  | 15 mm |  | 16 mm |  |  | significant activity |  | significant activity |  | 
10 | C=C(C)[C@@H]1CC[C@]2(CO)CC[C@]3(C)[C@H](CC[C@@H]4[C@@]5(C)CC[C@H](O)C(C)(C)[C@@H]5CC[C@]43C)[C@@H]12 [Compound 15, betulin] | 16 mm | 15 mm |  |  |  | 18 mm |  |  | significant activity |  | significant activity |  | 
11 | C[C@@H](O)[C@H]1C(=O)N2C(C(=O)O)=C(SCCN=CN)C[C@H]12 [Imipenem, reference compound] | 25 mm | 27 mm |  | 33 mm |  | 24 mm | 30 mm |  |  | 33 mm |  |  | 
12 | CC(C)C(=O)c1c(O)c([C@H](C2=C(O)C(C)(C)C(=O)C(C)(C)C2=O)C(C)C)c(O)c([C@H](C2=C(O)C(C)(C)C(=O)C(C)(C)C2=O)C(C)C)c1O [Myrtucommulone-A] |  |  |  |  |  |  |  |  |  |  |  | significant antibacterial activity | powerful antioxidant properties
13 | Cc1c(O)c(C(=O)C(C)C)c(O)c(C(C2=C(O)C(C)(C)C(=O)C(C)(C)C2=O)C(C)C)c1O (centres unmarked) [semimyrtucommulone] |  |  |  |  |  |  |  |  |  |  |  | less active | powerful antioxidant properties
14 | Myrtucommulone-D [Compound 1] | 15 mm | 12 mm | 84.3 ± 3 µM | 15 mm | significant antibacterial activity |  |  |  |  | 24 mm |  |  | 
